{"source": "ChEMBL document CHEMBL3621205", "about": "“High-Throughput Screening of Patient-Derived Cultures Reveals Potential for Precision Medicine in Glioblastoma” (ACS Med Chem Lett, 2015)", "assay_type_in_all_cases": "functional, cell-based", "key": {"Glioma [1]": {"test_system": "Glioma", "experiment": "Cytotoxicity against human Glioma cells (HF2303) at 50 uM after 72 hrs by CelltiterGlo assay"}, "Glioma [2]": {"test_system": "Glioma", "experiment": "Cytotoxicity against human Glioma cells (HF2381) at 50 uM after 72 hrs by CelltiterGlo assay"}, "Glioma [3]": {"test_system": "Glioma", "experiment": "Cytotoxicity against human Glioma cells (HF2476) at 50 uM after 72 hrs by CelltiterGlo assay"}, "Glioma [4]": {"test_system": "Glioma", "experiment": "Cytotoxicity against human Glioma cells (HF2790) at 50 uM after 72 hrs by CelltiterGlo assay"}, "Glioma [5]": {"test_system": "Glioma", "experiment": "Cytotoxicity against human Glioma cells (HF2876) at 50 uM after 72 hrs by CelltiterGlo assay"}, "Glioma [6]": {"test_system": "Glioma", "experiment": "Cytotoxicity against human Glioma cells (HF2885) at 50 uM after 72 hrs by CelltiterGlo assay"}, "Glioma [7]": {"test_system": "Glioma", "experiment": "Cytotoxicity against human Glioma cells (HF3013) at 50 uM after 72 hrs by CelltiterGlo assay"}, "Glioma [8]": {"test_system": "Glioma", "experiment": "Cytotoxicity against human Glioma cells (HF2303) after 72 hrs by CelltiterGlo assay"}, "Glioma [9]": {"test_system": "Glioma", "experiment": "Cytotoxicity against human Glioma cells (HF2476) after 72 hrs by CelltiterGlo assay"}, "Glioma [10]": {"test_system": "Glioma", "experiment": "Cytotoxicity against human Glioma cells (HF2876) after 72 hrs by CelltiterGlo assay"}, "Glioma [11]": {"test_system": "Glioma", "experiment": "Cytotoxicity against human Glioma cells (HF3013) after 72 hrs by CelltiterGlo assay"}, "Glioma [12]": {"test_system": "Glioma", "experiment": "Induction of apoptosis in human Glioma cells (HF2476) assessed as increase in cleaved caspase-3 level by western blot analysis"}, "Glioma [13]": {"test_system": "Glioma", "experiment": "Induction of apoptosis in human Glioma cells (HF2876) assessed as increase in cleaved caspase-3 level by western blot analysis"}, "Glioma [14]": {"test_system": "Glioma", "experiment": "Cytotoxicity against human Glioma cells (HF2476) after 72 hrs by CelltiterGlo assay in presence of mTOR inhibitor AZD-8055"}, "Glioma [15]": {"test_system": "Glioma", "experiment": "Cytotoxicity against human Glioma cells (HF3013) after 72 hrs by CelltiterGlo assay in presence of mTOR inhibitor AZD-8055"}, "Glioma [16]": {"test_system": "Glioma", "experiment": "Cytotoxicity against human Glioma cells (HF2303) after 72 hrs by CelltiterGlo assay in presence of mTOR inhibitor AZD-8055"}, "Glioma [17]": {"test_system": "Glioma", "experiment": "Cytotoxicity against human Glioma cells (HF2876) after 72 hrs by CelltiterGlo assay in presence of mTOR inhibitor AZD-8055"}, "Glioma [18]": {"test_system": "Glioma", "experiment": "Decrease in phosphorylated S6 ribosomal protein level at Ser235 residue in human Glioma cells (HF2476) by western blot analysis"}, "Glioma [19]": {"test_system": "Glioma", "experiment": "Decrease in phosphorylated S6 ribosomal protein level at Ser236 residue in human Glioma cells (HF2476) by western blot analysis"}, "Glioma [20]": {"test_system": "Glioma", "experiment": "Decrease in phosphorylated S6 ribosomal protein level at Ser235 residue in human Glioma cells (HF2876) by western blot analysis"}, "Glioma [21]": {"test_system": "Glioma", "experiment": "Decrease in phosphorylated S6 ribosomal protein level at Ser236 residue in human Glioma cells (HF2876) by western blot analysis"}, "Glioma [22]": {"test_system": "Glioma", "experiment": "Cytotoxicity against human Glioma cells (HF2476) after 72 hrs by CelltiterGlo assay in presence of Bcl2-inhibitor ABT-263"}, "Glioma [23]": {"test_system": "Glioma", "experiment": "Cytotoxicity against human Glioma cells (HF3013) after 72 hrs by CelltiterGlo assay in presence of Bcl2-inhibitor ABT-263"}, "Glioma [24]": {"test_system": "Glioma", "experiment": "Cytotoxicity against human Glioma cells (HF2303) after 72 hrs by CelltiterGlo assay in presence of Bcl2-inhibitor ABT-263"}, "Glioma [25]": {"test_system": "Glioma", "experiment": "Cytotoxicity against human Glioma cells (HF2876) after 72 hrs by CelltiterGlo assay in presence of Bcl2-inhibitor ABT-263"}}, "note": "The source made the active and inactive calls. The rule behind the calls is not given here.", "data": [{"smiles": "Cn1nnc2c(C(N)=O)ncn2c1=O", "values": [{"measurement": "Activity", "setting": "Glioma [1]", "result": "inactive"}, {"measurement": "Activity", "setting": "Glioma [2]", "result": "inactive"}, {"measurement": "Activity", "setting": "Glioma [3]", "result": "inactive"}, {"measurement": "Activity", "setting": "Glioma [4]", "result": "inactive"}, {"measurement": "Activity", "setting": "Glioma [5]", "result": "inactive"}, {"measurement": "Activity", "setting": "Glioma [6]", "result": "inactive"}, {"measurement": "Activity", "setting": "Glioma [7]", "result": "inactive"}]}, {"smiles": "CC1(C)CCC(c2ccc(Cl)cc2)=C(CN2CCN(c3ccc(C(=O)NS(=O)(=O)c4ccc(N[C@H](CCN5CCOCC5)CSc5ccccc5)c(S(=O)(=O)C(F)(F)F)c4)cc3)CC2)C1", "values": [{"measurement": "Activity", "setting": "Glioma [8]", "result": "inactive"}, {"measurement": "Activity", "setting": "Glioma [9]", "result": "inactive"}, {"measurement": "Activity", "setting": "Glioma [10]", "result": "inactive"}, {"measurement": "Activity", "setting": "Glioma [11]", "result": "inactive"}, {"measurement": "Activity", "setting": "Glioma [12]", "result": "Active"}, {"measurement": "Activity", "setting": "Glioma [13]", "result": "Active"}, {"measurement": "Activity", "setting": "Glioma [14]", "result": "Active"}, {"measurement": "Activity", "setting": "Glioma [15]", "result": "Active"}, {"measurement": "Activity", "setting": "Glioma [16]", "result": "Active"}, {"measurement": "Activity", "setting": "Glioma [17]", "result": "Active"}]}, {"smiles": "COc1ccc(-c2ccc3c(N4CCOC[C@@H]4C)nc(N4CCOC[C@@H]4C)nc3n2)cc1CO", "values": [{"measurement": "inhibition", "setting": "Glioma [18]", "result": "Active"}, {"measurement": "inhibition", "setting": "Glioma [19]", "result": "Active"}, {"measurement": "inhibition", "setting": "Glioma [20]", "result": "Active"}, {"measurement": "inhibition", "setting": "Glioma [21]", "result": "Active"}, {"measurement": "Activity", "setting": "Glioma [22]", "result": "Active"}, {"measurement": "Activity", "setting": "Glioma [23]", "result": "Active"}, {"measurement": "Activity", "setting": "Glioma [24]", "result": "inactive"}, {"measurement": "Activity", "setting": "Glioma [25]", "result": "inactive"}]}]}
